Test results reported in US12478620B2, “Cyano-substituted cyclic hydrazine derivative and application thereof” (E-nitiate Biopharmaceuticals (Hangzhou) Co., Ltd, priority 2019, dated 2025).

Key:
JAK1 = JAK1 (Homo sapiens, UniProt P23458); test: JAK kinase inhibitor activity detection (ULight-JAK-1 substrate, Eu-labeled anti-phosphotyrosine antibody), JAK1; format: biochemical; conditions: JAK1 10 nM, substrate 50 nM, ATP 40 uM, 2 h room temperature
Procedure: (§1) Activity Detection of Small Molecule Inhibitors of JAK Kinase
(§2) • (1) kinase reaction buffer • Prepare the kinase reaction buffer with the following components: 50 mM HEPES, pH 7.5, 1 mM EGTA, 10 mM MgCl2, 2 mM DTT, 0.01% Tween20 • (2) 1× detection buffer • To prepare detection buffer, dilute 10× detection buffer to 1× with deionized water 9:1 • (3) 4× kinase solution • Dilute JAK to 4× final concentration by JAK reaction buffer (JAK1: 40 nM, JAK2: 0.5 nM) • (4) 4× substrate solution • Dilute ULight™-JAK-1 (Tyr1023) substrate to 200 nM by kinase reaction buffer (final concentration: 50 nM) • (5) 4×ATP solution • Dilute ATP to 4× final concentration by kinase reaction buffer (JAK1: 160 μM, JAK2: 40 μM) • (6) 4× compound testing solution • DMSO dissolves the testing compound into 10 mM stock solution, then prepared to the desired concentration with 3-fold serial dilution, and 10 concentration points were set for each compound. Besides, the final concentration range of the testing compound is: 10 μM-0.5 nM • (7) 4× enzyme reaction termination liquid • 1× test buffer dissolves EDTA to 40 mM (EDTA final concentration: 10 mM) • (8) 4× antibody detection solution • 1× test buffer dilutes Eu labeled antibody (anti-phosphotyrosine (PT66)) to 8 nM (antibody final concentration: 2 nM) 2. Experimental Process • (1) Successively add 2.5 μL 4×JAK solution, and 2.5 μL of diluted 4× test compound solution in different concentrations to the 384 microporous plate, and set 2 multi-wells for each concentration. Meanwhile, set enzyme solution blank control group and negative control group (DMSO group). • (2) Shake the 384-hole plate, mix enzymes and compounds, centrifuge at 1000 rpm for 1 minute, and incubate at room temperature for 60 minutes • (3) Add 2.5 μL of 4× substrate solution to a 384-hole plate and centrifuge at 1000 rpm for 1 min • (4) Add 2.5 μL of 4×ATP solution to the 384 multi-well plate and centrifuge at 1000 rpm for 1 minute to initiate the enzyme reaction. • (5) JAK1 reacts at room temperature for 2 h, and JAK2 react at room temperature for 1 h. • (6) The final concentrations of each group of the JAK1 reaction are: JAK1: 10 nM, substrate: 50 nM, ATP: 40 uM, and the final concentration range of the test compound is: 10 μM-0.5 nM • The final concentrations of each group of the JAK2 reaction are: JAK2: 0.125 nM, substrate: 50 nM, ATP: 10 μM, and the final concentration range of test compounds is: 10 μM-0.5 nM • (7) After the enzyme reaction, add 5 μL of 4× enzyme reaction stop solution to each well of the 384-well plate with 1000 rpm, centrifuge for 1 minute, and incubate at room temperature for 5 min. • (8) Add 5 μL of 4× detection antibody solution to each well of a 384-well plate (final concentration of detection antibody is 2 nM) with 1000 rpm, centrifuge for 1 minute, and incubate at room temperature for 1 h. • (10) After antibody incubation, measure the signal value of each well on an Envision plate reader 3. Data Analysis • (1) Taking the enzyme solution blank control group as 100% inhibition rate and the negative control group (DMSO group) as 0% inhibition rate, calculate the percentage inhibition rate corresponding to each concentration of the tested compounds • (2) In GraphPad Prism software, nonlinear regression analysis is performed on the concentration logarithm of the test compound and the corresponding percentage inhibition rate to obtain the half-inhibitory concentration (IC50) of the test compound.

JAK2 = JAK2 (Homo sapiens, UniProt O60674); test: JAK kinase inhibitor activity detection (ULight-JAK-1 substrate, Eu-labeled anti-phosphotyrosine antibody), JAK2; format: biochemical; conditions: JAK2 0.125 nM, substrate 50 nM, ATP 10 μM, 1 h room temperature
Chain of JAK2 (O60674 whole entry, species assumed): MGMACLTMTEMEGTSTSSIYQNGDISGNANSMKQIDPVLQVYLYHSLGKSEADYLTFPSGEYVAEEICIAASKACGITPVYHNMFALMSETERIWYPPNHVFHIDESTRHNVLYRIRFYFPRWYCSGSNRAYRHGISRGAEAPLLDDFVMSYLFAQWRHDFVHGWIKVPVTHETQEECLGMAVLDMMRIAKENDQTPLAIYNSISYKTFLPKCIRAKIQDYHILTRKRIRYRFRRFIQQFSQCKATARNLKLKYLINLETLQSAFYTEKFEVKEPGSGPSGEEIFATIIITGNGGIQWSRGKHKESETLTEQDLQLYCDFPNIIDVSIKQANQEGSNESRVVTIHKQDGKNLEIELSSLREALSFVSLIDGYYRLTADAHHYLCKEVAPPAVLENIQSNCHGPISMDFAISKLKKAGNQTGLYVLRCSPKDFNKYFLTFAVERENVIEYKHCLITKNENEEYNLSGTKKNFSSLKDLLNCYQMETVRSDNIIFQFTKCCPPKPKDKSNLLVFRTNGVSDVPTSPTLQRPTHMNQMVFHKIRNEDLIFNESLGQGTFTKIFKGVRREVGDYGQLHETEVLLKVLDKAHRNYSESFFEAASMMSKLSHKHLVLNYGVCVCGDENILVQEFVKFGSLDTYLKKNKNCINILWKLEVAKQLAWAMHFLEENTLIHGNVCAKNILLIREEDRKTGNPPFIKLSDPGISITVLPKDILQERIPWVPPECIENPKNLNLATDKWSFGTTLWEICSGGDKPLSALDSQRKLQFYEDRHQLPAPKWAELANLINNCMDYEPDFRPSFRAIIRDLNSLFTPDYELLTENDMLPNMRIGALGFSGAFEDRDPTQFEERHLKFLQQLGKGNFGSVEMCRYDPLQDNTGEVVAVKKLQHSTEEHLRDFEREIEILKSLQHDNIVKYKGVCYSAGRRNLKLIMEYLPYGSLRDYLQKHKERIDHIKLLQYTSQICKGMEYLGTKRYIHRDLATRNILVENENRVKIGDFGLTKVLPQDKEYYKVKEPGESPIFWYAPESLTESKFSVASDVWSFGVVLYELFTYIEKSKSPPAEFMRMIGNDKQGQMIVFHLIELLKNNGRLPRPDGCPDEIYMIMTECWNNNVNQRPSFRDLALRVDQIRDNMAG
Procedure: as §1, §2

Chain of JAK1 (P23458 whole entry, species assumed): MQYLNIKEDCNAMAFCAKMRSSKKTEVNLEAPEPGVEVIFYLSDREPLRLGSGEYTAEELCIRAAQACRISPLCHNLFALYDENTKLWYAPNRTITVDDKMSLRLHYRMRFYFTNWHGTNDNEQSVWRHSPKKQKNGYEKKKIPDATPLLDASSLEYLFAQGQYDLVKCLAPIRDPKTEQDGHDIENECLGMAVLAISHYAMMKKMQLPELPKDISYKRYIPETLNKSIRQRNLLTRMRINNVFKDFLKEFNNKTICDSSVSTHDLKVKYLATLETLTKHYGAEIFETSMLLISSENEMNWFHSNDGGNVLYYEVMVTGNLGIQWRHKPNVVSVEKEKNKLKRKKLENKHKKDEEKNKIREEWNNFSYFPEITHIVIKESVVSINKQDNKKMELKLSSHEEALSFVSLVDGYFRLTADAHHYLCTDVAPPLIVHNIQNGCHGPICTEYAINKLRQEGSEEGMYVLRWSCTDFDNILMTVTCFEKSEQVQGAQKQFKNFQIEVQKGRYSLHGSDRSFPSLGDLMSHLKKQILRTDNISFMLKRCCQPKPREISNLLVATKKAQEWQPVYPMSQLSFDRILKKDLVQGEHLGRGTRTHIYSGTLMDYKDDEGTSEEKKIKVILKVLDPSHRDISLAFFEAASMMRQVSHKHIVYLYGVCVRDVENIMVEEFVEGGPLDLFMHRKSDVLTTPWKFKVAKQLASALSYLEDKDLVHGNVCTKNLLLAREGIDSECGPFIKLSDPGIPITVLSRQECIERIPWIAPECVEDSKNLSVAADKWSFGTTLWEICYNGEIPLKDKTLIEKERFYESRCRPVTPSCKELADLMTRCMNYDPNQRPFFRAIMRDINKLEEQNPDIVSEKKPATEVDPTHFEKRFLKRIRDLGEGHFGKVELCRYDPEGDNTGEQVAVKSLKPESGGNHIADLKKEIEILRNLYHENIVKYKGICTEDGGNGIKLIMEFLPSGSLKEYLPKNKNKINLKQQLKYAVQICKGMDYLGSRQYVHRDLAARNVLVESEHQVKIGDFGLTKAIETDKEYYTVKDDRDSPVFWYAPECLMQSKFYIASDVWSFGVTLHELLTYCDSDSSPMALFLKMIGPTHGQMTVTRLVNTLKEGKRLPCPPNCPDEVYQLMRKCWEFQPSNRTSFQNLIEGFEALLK

SMILES | IC50 (JAK1) | IC50 (JAK2)
Cc1nc2cnc3[nH]ccc3c2n1N1CCC(CC#N)CC1 [Example 3, 2-(1-(methylimidazo[4,5-d]pyrrolo[2,3-b]pyridine-1(6H)-yl)piperidin-4-yl)acetonitrile] | 0.17 nM | 0.28 nM
CCc1nc2cnc3[nH]ccc3c2n1N1CCC(CC#N)CC1 [Example 4, 2-(1-(ethylimidazo[4,5-d]pyrrolo[2,3-b]pyridine-1(6H)-yl)piperidin-4-yl)acetonitrile] | 0.47 nM | 0.95 nM
N#CCC1CCN(n2c(CO)nc3cnc4[nH]ccc4c32)CC1 [Example 5, 2-(1-(2-(hydroxymethyl)imidazo[4,5-d]pyrrolo[2,3-b]pyridine-1(6H)-yl)piperidin-4-yl)acetonitrile] | 0.28 nM | 1.45 nM
N#CCC1CCN(n2c(CCO)nc3cnc4[nH]ccc4c32)CC1 [Example 6, 2-(1-(2-(2-hydroxyethyl)imidazo[4,5-d]pyrrolo[2,3-b]pyridine-1(6H)-yl)piperidin-4-yl)acetonitrile] | 0.66 nM | 3.89 nM
C[C@@H](O)c1nc2cnc3[nH]ccc3c2n1N1CCC(CC#N)CC1 [Example 7, (R)-2-(1-(2-(1-hydroxyethyl)imidazo[4,5-d]pyrrolo[2,3-b]pyridine-1(6H)-yl)piperidin-4-yl)acetonitrile] | 0.08 nM | 4 nM
C[C@H](O)c1nc2cnc3[nH]ccc3c2n1N1CCC(CC#N)CC1 [Example 8, (S)-2-(1-(2-(1-hydroxyethyl)imidazo[4,5-d]pyrrolo[2,3-b]pyridine-1(6H)-yl)piperidin-4-yl)acetonitrile] | 1.5 nM | 5 nM
N#CCC1CCN(n2c(N)nc3cnc4[nH]ccc4c32)CC1 [Example 9, 2-(1-(2-aminoimidazo[4,5-d]pyrrolo[2,3-b]pyridine-1(6H)-yl)piperidin-4-yl)acetonitrile] | 0.14 nM | 0.7 nM
CS(=O)(=O)NCc1nc2cnc3[nH]ccc3c2n1N1CCC(CC#N)CC1 [Example 10, N-((1-(4-(cyanomethyl)piperidin-1-yl)-1,6-dihydroimidazole[4,5-d]pyrrolo[2,3-b]pyridine-2-yl)methyl)methanesulfonamide] | 0.8 nM | 6.1 nM
C[C@@H](O)c1nc2cnc3[nH]ccc3c2n1N1CCC2(CC1)CC2C#N (stereo partly drawn) [Example 13, 6-(2-((R)-1-hydroxyethyl)imidazo[4,5-d]pyrrolo[2,3-b]pyridine-1(6H)-yl)-6-azaspiro[2.5]octane-1-carbonitrile] | 16 nM | 56.7 nM
C[C@@H](O)c1nc2cnc3[nH]ccc3c2n1N1CCC(C(C)(C)C#N)CC1 [Example 15, (R)-2-(1-(2-(1-hydroxyethyl)imidazo[4,5-d]pyrrolo[2,3-b]pyridine-1(6H)-yl)piperidine-4-yl)-2-methyl propionitrile] | 5.14 nM | 16.1 nM
C[C@@H](O)c1nc2cnc3[nH]ccc3c2n1N1CCC(C)(CC#N)CC1 [Example 18, (R)-2-(1-(2-(1-hydroxyethyl)imidazo[4,5-d]pyrrolo[2,3-b]pyridine-1(6H)-yl)-4-methylpiperidine-4-yl)acetonitrile] | 6.31 nM | 13.8 nM
N#CCC1CC2CCC(C1)N2n1cnc2cnc3[nH]ccc3c21 (stereo not shown) [Example 21, 2-(8-(imidazo[4,5-d]pyrrolo[2,3-b]pyridin-1(6H)-yl)-8-azabicyclo[3.2.1]octan-3-yl)acetonitrile] | 0.92 nM | 4.77 nM
C[C@@H](O)c1nc2cnc3[nH]ccc3c2n1N1C2CCC1CC(=CC#N)C2 [Example 22, 2-(8-(2-((R)-1-hydroxyethyl)imidazo[4,5-d]pyrrolo[2,3-b]pyridin-1(6H)-yl)-8-azabicyclo[3.2.1]octan-3-ylidene)acetonitrile] | 1.6 nM | 4.04 nM
C[C@@H](O)c1nc2cnc3[nH]ccc3c2n1N1C2CCC1CC(CC#N)C2 (stereo partly drawn) [Example 23, 2-(8-(2-((R)-1-hydroxyethyl)imidazo[4,5-d]pyrrolo[2,3-b]pyridin-1(6H)-yl)-8-azabicyclo[3.2.1]octan-3-yl)acetonitrile] | 2.71 nM | 6.07 nM
N#CCC(=O)N1CCN(n2cnc3cnc4[nH]ccc4c32)CC1 [Example 26, 3-(4-(imidazo[4,5-d]pyrrorolo[2,3-b]pyridin-1(6H)-yl)piperazin-1-yl)oxypropionitrile] | 41.7 nM | 151 nM
C[C@@H](O)c1nc2cnc3[nH]ccc3c2n1N1CCCC(CC#N)CC1 (stereo partly drawn) [Example 27, 2-(1-(2-((R)-1-hydroxyethyl)imidazo[4,5-d]pyrrolo[2,3-b]pyridin-1(6H)-yl)-6-azepan-4-yl)acetonitrile] | 1.7 nM | 2.3 nM
CCC1CN(C(=O)CC#N)CN1n1cnc2cnc3[nH]ccc3c21 (stereo not shown) [Example 28] | 3.5 nM | 13.1 nM
CCC1CN(CCC#N)CN1n1cnc2cnc3[nH]ccc3c21 (stereo not shown) [Example 29, 3-(4-ethyl-3-(imidazo[4,5-d]pyrrolo[2,3-b]pyridine-1(6H)-yl)imidazolidine-1-yl)propionitrile] | 13.9 nM | 27.5 nM

Other lines, results leading:

IC50 (JAK1) | IC50 (JAK2) | SMILES
23.8 nM | 70.9 nM | N#CC1CCN(n2cnc3cnc4[nH]ccc4c32)CC1 [Example 1, 1-(imidazo[4,5-d]pyrrolo[2,3-b]pyridine-1(6H)-yl)piperidine-4-carbonitrile]
0.28 nM | 1.7 nM | N#CCC1CCN(n2cnc3cnc4[nH]ccc4c32)CC1 [Example 2, 2-(1-(imidazo[4,5-d]pyrrolo[2,3-b]pyridine-1(6H)-yl)piperidin-4-yl)acetonitrile]
0.57 nM | 2.98 nM | N#CCCC1CCN(n2cnc3cnc4[nH]ccc4c32)CC1 [Example 11]
1.77 nM | 3.28 nM | N#CC1CC12CCN(n1cnc3cnc4[nH]ccc4c31)CC2 (stereo not shown) [Example 12, 6-(imidazo[4,5-d]pyrrolo[2,3-b]pyridine-1(6H)-yl)-6-azaspiro[2.5]octane-1-carbonitrile]
13.5 nM | 7.5 nM | CC(C)(C#N)C1CCN(n2cnc3cnc4[nH]ccc4c32)CC1 [Example 14, 2-(1-(imidazo[4,5-d]pyrrolo[2,3-b]pyridine-1(6H)-yl)piperidine-4-yl)-2-methyl propionitrile]
1.31 nM | 16.1 nM | N#CC=C1CCN(n2cnc3cnc4[nH]ccc4c32)CC1 [Example 16, 2-(1-(imidazo[4,5-d]pyrrolo[2,3-b]pyridin-1(6H)-yl)piperidin-4-ylidene)acetonitrile]
2 nM | 1.2 nM | CC1(CC#N)CCN(n2cnc3cnc4[nH]ccc4c32)CC1 [Example 17, 2-(1-(imidazo[4,5-d]pyrrolo[2,3-b]pyridine-1(6H)-yl)-4-methylpiperidine-4-yl)acetonitrile]
2.37 nM | 6.01 nM | N#CCC1(O)CCN(n2cnc3cnc4[nH]ccc4c32)CC1 [Example 19, 2-(4-hydroxy-1-(imidazo[4,5-d]pyrrolo[2,3-b]pyridine-1(6H)-yl)-piperidine-4-yl)acetonitrile]
4.3 nM | 1.9 nM | N#CC=C1CC2CCC(C1)N2n1cnc2cnc3[nH]ccc3c21 [Example 20, 2-(8-(imidazo[4,5-d]pyrrolo[2,3-b]pyridin-1(6H)-yl)-8-azabicyclo[3.2.1]octan-3-ylidene)acetonitrile]
7.72 nM | 46.6 nM | N#CCN1CCN(n2cnc3cnc4[nH]ccc4c32)CC1 [Example 24, 3-(4-(imidazo[4,5-d]pyrrolo[2,3-b]pyridin-1(6H)-yl)piperazin-1-yl)acetonitrile]
5.2 nM | 5.3 nM | N#CCCN1CCN(n2cnc3cnc4[nH]ccc4c32)CC1 [Example 25, 3-(4-(imidazo[4,5-d]pyrrolo[2,3-b]pyridin-1(6H)-yl)piperazin-1-yl)propanenitrile]
